Results from US11571413B2, “Nicotinamide riboside treatments of domesticated meat animals” (Kansas State University Research Foundation, priority 2017, dated 2023).
Where “and” joins values, the source holds several entries; their conditions need not be identical. Equal values may be shown once. Marks after values point to notes of the source that are not given here.

Key:
finishing barrows = experiment: Finishing pig growth performance (Example IV); assay type: in vivo
Procedure: Seven days prior to the beginning of the experiment, 10 finishing barrows (initial BW 111.9±1.6 kg) were assigned to individual pens located at the East Finisher facility of the Kansas State University Swine Teaching and Research Center (Manhattan, Kans.). Each pen was 7.4 m^2 with a slatted floor, contained a nipple waterer and an individual dry feeder that allowed ad libitum access to food and water. Barrows were randomly assigned to 1 of 2 NR treatments, 0 or 30 mg/kg daily of NR mixed in Karo® syrup and administered by oral gavage. Barrows were administered their assigned treatment for 10 days, after which they were harvested under USDA inspection. Twenty-four hours after harvest, carcass measurements were taken by trained personnel, carcasses were fabricated into the 5 major wholesale cuts, and whole-boneless loins were vacuum packaged and aged for 10 days. Loin were cut into 3 chops with chop 1 being used for day-0 metmyoglobin reducing ability (MRA) analysis, chop 2 being used for day-4 MRA and oxygen consumption rate (OCR) analyses, and chop 3 for 8-day objective/subjective color evaluation and MRA and OCR analyses.

[1] = system: Fertilized broiler eggs (Cobb 500); experiment: In ovo feeding of NR into yolk or albumen: hatched chick body and pectoralis major morphometrics (Example VI); assay type: in vivo, chicken; conditions: hatched chicks
Procedure: Fertilized broiler eggs (N=156; Cobb 500; Cobb-Vantress, Siloam Springs, Ark.) with an average weight of 70.3 g were transported in coolers to the Kansas State University Muscle Biology Laboratory (Manhattan, Kans.). Upon arrival, egg weights were recorded, eggs were ordered by weight, and within each 4 egg strata, eggs were randomly assigned to treatments within a 2×2 factorial arrangement. Factor 1 was NR treatment with eggs receiving 0 or 250 mM NR (ChromaDex, Los Angeles, Calif.). Factor 2 was injection location, with treatments injected into either the yolk or albumen. After treatment assignment, eggs were positioned with equal treatment representation onto trays and placed in an incubator (Sportsman 1502; GQF Manufacturing Company Inc., Savannah, Ga.) set to operate at a temperature of 37° C. and a relative humidity of 40±2% for the first 18 d of incubation. The incubator rotated hourly to reposition eggs, and trays were rotated daily throughout the incubator to account for variation in temperature and humidity. Tray weights were recorded each day to determine egg weight loss percentage with a target weight loss of 0.67% per day.
At d 10 of incubation, NR with the equivalent weight of 250 mM was added to 0.9% sterile saline and covered with foil to prevent exposure to light. Sets of 20 eggs representing equal treatment numbers were removed from the incubator, candled to determine location of the yolk and albumen, and the injection site was cleaned with 70% ethanol. Eggs were turned at a 90° angle and a 2.54-cm, 20-guage hypodermic needle was used to create an opening in the shell at the proper injection site. The needle was inserted approximately 1 cm into injection site and 100 μl of the 250 mM NR solution or 0.9% saline solution was injected into the egg. A 1-cm^2 portion of medical tape (Nexcare; 3M, Maplewood, Minn.) was positioned over the injection location and eggs were returned to the incubator.
On d 18 of incubation, the relative humidity of the incubator was increased to 60±2% and eggs were placed into hatching boxes at the bottom of the incubator. As chicks began to hatch, they were removed from the incubator, marked for treatment, and relocated to a box positioned underneath a heat lamp. Approximately 12 to 24 h after hatch, chicks were euthanized by prolonged exposure to CO2 gas and decapitation. Chick weights were recorded, and digital calipers (Traceable Digital Calipers; Fisher Scientific, Pittsburg, Pa.) were utilized to measure crown to rump length, head width, head length. Head and chest circumference were also collected by wrapping a string around the designated area and determining the length against a ruler.
Chick carcasses were sprayed with 70% ethanol and the skin and feathers were pulled back to reveal the pectoralis major (PM) muscles. Prior to PM muscles removal, chest width and length were measured using digital calipers. The left and right PM muscles were removed, careful to not remove the pectoralis minor muscles. The left PM was weighed and dimensions were collected using digital calipers, including length, width, and depth. This muscle was positioned onto a tongue depressor and placed into a −80° C. freezer, where it was stored until it was used for cryosectioning. The heart and liver were also removed, weighed, and discarded.

fertilized broiler eggs = experiment: In ovo NR injection at 11 days of incubation: chick weight and Pectoralis major measurements (Example 1); assay type: in vivo, chicken
Procedure: At 11-days of incubation, 60 fertilized broiler eggs were randomly assigned to completely randomized design with a 2×2 factorial arrangement. Factor 1 comprised treatment, with eggs injected with 100 μl of 0.9% sterile saline solution (NRNeg) or 250 mM NR in sterile saline (NRPos). Factor 2 comprised injection location, with treatments injected into the yolk or albumen. Eggs were incubated at 37±3° C. and a relative humidity of 40±2% for 7 days. Humidity was increased to 60±2% at the same temperature for the final 3 days of incubation. Twenty-four hours after hatching, chicks were euthanized by exposure to CO2 and decapitation. Measurements including chick weight and left Pectoralis major weight, length, and depth were taken for analysis.

[2] = d 0 to 17, NR 30 mg/kg daily d 7 to 17
[3] = 250 mM NR, 100 μl into albumen d 10
[4] = 250 mM NR, 100 μl into yolk d 10
[5] = 100 μl 250 mM NR into yolk at 11 d, chicks 24 h after hatching

Question: For `NC(=O)c1ccc[n+]([C@@H]2O[C@H](CO)[C@@H](O)[C@H]2O)c1` [Nicotinamide riboside, nicotinamide riboside], which “Increase of average daily gain (numerical)” value (finishing barrows; 30 mg/kg daily oral gavage over 10 days) is on record?
Answer: 8%

Question: And the Body weight (finishing barrows; d 0 (NR 30 mg/kg given d 7 to 17; before treatment))?
Answer: 112.0 kg

Question: And the Average daily gain (finishing barrows; d 0 to 7 (before NR treatment))?
Answer: 0.7 kg

Question: And the “Average daily feed intake” value (finishing barrows; [2])?
Answer: 3.8 kg

Question: What about the Average daily gain (finishing barrows; [2]) of the same compound?
Answer: 1.1 kg

Question: What about the “Feed to gain ratio” value (finishing barrows; [2]) of the same compound?
Answer: 3.42

Question: What about the Body weight (finishing barrows; d 7 (start of NR 30 mg/kg, d 7 to 17)) of the same compound?
Answer: 117.0 kg

Question: What about the Average daily gain (finishing barrows; d 7 to 17, NR 30 mg/kg daily) of the same compound?
Answer: 1.43 kg

Question: What about the Body weight (finishing barrows; d 17, NR 30 mg/kg daily d 7 to 17) of the same compound?
Answer: 131.3 kg

Question: What about the “Increase of PM weight” value ([1]; 250 mM NR into the yolk sac) of the same compound?
Answer: 38%

Question: And the “Increase of PM length” value ([1]; 250 mM NR into the yolk sac, listed as NR)?
Answer: 22% and 21%

Question: And the Body weight [1, 3]?
Answer: 43.19 g

Question: And the Chest length [1, 3]?
Answer: 21.98 mm

Question: And the Chest width [1, 3]?
Answer: 16.57 mm

Question: What about the Crown-rump length [1, 3] of the same compound?
Answer: 96.14 mm

Question: And the Head circumference [1, 3]?
Answer: 32.14 mm

Question: And the Head length [1, 3]?
Answer: 21.29 mm

Question: What about the Head width [1, 3] of the same compound?
Answer: 15.56 mm

Question: And the Heart weight [1, 3]?
Answer: 0.35 g

Question: What about the Liver weight [1, 3] of the same compound?
Answer: 1.05 g

Question: What about the Pectoralis major depth [1, 3] of the same compound?
Answer: 2.43 mm

Question: And the Pectoralis major length [1, 3]?
Answer: 18.68^b mm

Question: And the Pectoralis major weight [1, 3]?
Answer: 0.14^a g

Question: And the Pectoralis major width [1, 3]?
Answer: 4.81 mm

Question: And the Body weight [1, 4]?
Answer: 44.02 g

Question: And the Chest length [1, 4]?
Answer: 22.68 mm

Question: What about the Chest width [1, 4] of the same compound?
Answer: 17.69 mm

Question: What about the Crown-rump length [1, 4] of the same compound?
Answer: 89.36 mm

Question: And the Head circumference [1, 4]?
Answer: 31.49 mm

Question: What about the Head length [1, 4] of the same compound?
Answer: 21.73 mm

Question: And the Head width [1, 4]?
Answer: 15.45 mm

Question: And the Heart weight [1, 4]?
Answer: 0.36 g

Question: And the Liver weight [1, 4]?
Answer: 1.11 g

Question: What about the Pectoralis major depth [1, 4] of the same compound?
Answer: 2.65 mm

Question: And the Pectoralis major length [1, 4]?
Answer: 20.74^c mm

Question: What about the Pectoralis major weight [1, 4] of the same compound?
Answer: 0.18^b g

Question: And the Pectoralis major width [1, 4]?
Answer: 5.21 mm

Question: What about the “Increase of PM width” value ([1]; 250 mM NR, regardless of injection location) of the same compound?
Answer: 9%

Question: What about the “Increase of PM depth” value ([1]; 250 mM NR, regardless of injection location, listed as NR) of the same compound?
Answer: 11% and 10%

Question: And the “Pectoralis major depth vs NRNeg” value (fertilized broiler eggs; 100 μl 250 mM NR at 11 d, treatment main effect (yolk and albumen))?
Answer: thicker muscles

Question: What about the “Chick weight and Pectoralis major weight and length vs NRNeg” value (fertilized broiler eggs; 100 μl 250 mM NR into albumen at 11 d, chicks 24 h after hatching) of the same compound?
Answer: no differences

Question: And the “Chick weight vs NRNeg” value (fertilized broiler eggs; [5])?
Answer: tended to weigh more

Question: What about the “Pectoralis major length vs NRNeg” value (fertilized broiler eggs; [5]) of the same compound?
Answer: longer

Question: And the “Pectoralis major weight vs NRNeg” value (fertilized broiler eggs; [5])?
Answer: weighed more
